{"source": "patent US20220331274A1", "about": "“METHODS OF TREATING CANCER” (Inspirna, Inc., priority 2019, published 2022)", "key": {"LXRβ": {"target": "LXRβ (Homo sapiens, UniProt P55055)", "sequence (P55055 whole entry)": "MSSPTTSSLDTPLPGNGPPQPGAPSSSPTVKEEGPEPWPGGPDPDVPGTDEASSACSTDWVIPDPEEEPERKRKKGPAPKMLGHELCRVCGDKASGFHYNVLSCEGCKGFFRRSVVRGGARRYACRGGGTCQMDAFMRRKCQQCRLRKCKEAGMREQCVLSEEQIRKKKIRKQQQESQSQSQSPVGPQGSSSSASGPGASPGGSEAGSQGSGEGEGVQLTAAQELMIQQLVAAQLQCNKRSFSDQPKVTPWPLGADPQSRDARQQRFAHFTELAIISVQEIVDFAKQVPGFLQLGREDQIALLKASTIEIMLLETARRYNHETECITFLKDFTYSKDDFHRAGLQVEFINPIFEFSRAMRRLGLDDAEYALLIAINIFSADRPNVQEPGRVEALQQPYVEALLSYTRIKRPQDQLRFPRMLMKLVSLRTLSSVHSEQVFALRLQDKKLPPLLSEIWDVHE", "assay": "cell-based biosensor assay"}, "melanoma xenograft": {"test_system": "melanoma xenograft", "assay": "melanoma xenograft study in non-obese diabetic-severe combined immunodeficiency mice", "type": "in vivo", "settings": "25 mg/kg"}, "mouse melanoma": {"test_system": "mouse melanoma", "assay": "syngeneic mouse melanoma model", "type": "in vivo"}, "[1]": {"test_system": "melanoma, glioblastoma, TNBC, ovarian cancer, and lung cancer", "assay": "syngeneic and human xenograft mouse tumor models, primary tumor growth", "type": "in vivo"}, "endothelial cells": {"test_system": "endothelial cells", "assay": "endothelial recruitment in vitro", "type": "cell-based"}, "ApoE [2]": {"test_system": "ApoE", "assay": "ApoE gene expression induction in cancer cells", "type": "cell-based", "settings": "compared to control cells"}, "ApoE [3]": {"test_system": "ApoE", "assay": "ApoE gene expression induction in hPBMCs", "type": "cell-based, human", "settings": "compared to control cells"}, "[4]": {"target": "human ether-n-go-go-related gene (hERG) channel (Homo sapiens, UniProt Q12809)", "sequence (Q12809 whole entry)": "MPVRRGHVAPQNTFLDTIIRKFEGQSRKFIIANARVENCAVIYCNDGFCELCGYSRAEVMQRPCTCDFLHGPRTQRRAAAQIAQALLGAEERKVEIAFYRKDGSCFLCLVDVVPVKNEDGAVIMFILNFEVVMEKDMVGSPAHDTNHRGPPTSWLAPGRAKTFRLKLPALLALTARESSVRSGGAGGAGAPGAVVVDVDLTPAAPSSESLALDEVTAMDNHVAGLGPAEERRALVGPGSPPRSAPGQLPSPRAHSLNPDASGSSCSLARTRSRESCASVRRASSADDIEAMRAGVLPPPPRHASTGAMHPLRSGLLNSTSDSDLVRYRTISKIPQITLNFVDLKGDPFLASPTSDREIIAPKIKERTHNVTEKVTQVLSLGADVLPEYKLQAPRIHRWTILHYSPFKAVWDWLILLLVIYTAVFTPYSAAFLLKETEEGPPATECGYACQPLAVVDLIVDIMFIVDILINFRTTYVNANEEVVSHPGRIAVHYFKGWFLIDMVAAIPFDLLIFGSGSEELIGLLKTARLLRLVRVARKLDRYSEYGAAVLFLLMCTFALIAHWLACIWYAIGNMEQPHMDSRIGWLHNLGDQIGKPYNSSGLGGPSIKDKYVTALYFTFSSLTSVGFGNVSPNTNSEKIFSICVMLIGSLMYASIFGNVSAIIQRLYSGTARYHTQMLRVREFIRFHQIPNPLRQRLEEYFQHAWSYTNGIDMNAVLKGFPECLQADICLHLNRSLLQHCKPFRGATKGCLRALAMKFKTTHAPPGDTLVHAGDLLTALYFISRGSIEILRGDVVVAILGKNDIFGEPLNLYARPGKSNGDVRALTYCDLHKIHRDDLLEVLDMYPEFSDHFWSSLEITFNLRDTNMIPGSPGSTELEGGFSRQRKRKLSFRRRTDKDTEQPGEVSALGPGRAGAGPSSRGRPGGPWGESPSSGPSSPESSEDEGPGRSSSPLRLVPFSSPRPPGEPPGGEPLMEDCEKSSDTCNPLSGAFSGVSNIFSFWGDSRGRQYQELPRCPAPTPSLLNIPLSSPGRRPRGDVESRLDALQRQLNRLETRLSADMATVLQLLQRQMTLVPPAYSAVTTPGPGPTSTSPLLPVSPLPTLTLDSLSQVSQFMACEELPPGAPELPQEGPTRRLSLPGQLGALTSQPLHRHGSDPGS", "assay": "in vitro hERG assay", "type": "cell-based"}, "[5]": {"assay": "safety pharmacology, ECG and heart rate in dogs", "type": "in vivo"}, "[6]": {"assay": "neurobehavioral functional observation battery (FOB) and respiratory evaluations in rats", "type": "in vivo"}, "[7]": {"assay": "oral PK study in Sprague-Dawley rats", "type": "in vivo"}, "CYP3A4": {"target": "CYP3A4 (Homo sapiens, UniProt P08684)", "sequence (P08684 whole entry)": "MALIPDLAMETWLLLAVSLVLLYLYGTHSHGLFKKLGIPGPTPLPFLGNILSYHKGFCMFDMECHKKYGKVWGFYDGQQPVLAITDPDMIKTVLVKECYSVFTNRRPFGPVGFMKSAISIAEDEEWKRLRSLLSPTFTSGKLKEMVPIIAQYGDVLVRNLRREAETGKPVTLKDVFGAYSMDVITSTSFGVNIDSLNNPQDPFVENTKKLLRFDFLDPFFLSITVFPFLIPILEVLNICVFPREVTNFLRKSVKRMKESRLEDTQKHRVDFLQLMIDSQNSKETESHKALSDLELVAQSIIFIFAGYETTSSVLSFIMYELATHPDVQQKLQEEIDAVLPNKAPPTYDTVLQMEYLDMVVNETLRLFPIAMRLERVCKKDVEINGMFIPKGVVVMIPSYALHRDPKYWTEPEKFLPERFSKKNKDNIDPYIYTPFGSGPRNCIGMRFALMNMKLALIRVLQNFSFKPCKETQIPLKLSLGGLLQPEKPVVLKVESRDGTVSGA", "assay": "in vitro CYP metabolism", "type": "in vitro ADME"}, "CYP2J2": {"target": "CYP2J2 (Homo sapiens, UniProt P51589)", "sequence (P51589 whole entry)": "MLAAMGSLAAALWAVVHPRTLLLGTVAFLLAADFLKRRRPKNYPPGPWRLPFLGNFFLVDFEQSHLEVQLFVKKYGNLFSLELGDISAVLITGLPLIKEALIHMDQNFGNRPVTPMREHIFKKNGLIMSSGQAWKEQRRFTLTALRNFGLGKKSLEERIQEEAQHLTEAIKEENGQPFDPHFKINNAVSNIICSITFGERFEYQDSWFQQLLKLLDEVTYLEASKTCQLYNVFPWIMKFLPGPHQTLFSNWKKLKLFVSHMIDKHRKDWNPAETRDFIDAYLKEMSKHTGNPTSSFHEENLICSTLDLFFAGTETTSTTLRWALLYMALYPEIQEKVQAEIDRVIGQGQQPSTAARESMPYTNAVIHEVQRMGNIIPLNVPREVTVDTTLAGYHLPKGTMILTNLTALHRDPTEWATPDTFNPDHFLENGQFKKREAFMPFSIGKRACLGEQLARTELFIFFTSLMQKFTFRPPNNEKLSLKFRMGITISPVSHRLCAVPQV", "assay": "in vitro CYP metabolism", "type": "in vitro ADME"}, "2A6": {"target": "2A6 (Homo sapiens, UniProt P11509)", "sequence (P11509 whole entry)": "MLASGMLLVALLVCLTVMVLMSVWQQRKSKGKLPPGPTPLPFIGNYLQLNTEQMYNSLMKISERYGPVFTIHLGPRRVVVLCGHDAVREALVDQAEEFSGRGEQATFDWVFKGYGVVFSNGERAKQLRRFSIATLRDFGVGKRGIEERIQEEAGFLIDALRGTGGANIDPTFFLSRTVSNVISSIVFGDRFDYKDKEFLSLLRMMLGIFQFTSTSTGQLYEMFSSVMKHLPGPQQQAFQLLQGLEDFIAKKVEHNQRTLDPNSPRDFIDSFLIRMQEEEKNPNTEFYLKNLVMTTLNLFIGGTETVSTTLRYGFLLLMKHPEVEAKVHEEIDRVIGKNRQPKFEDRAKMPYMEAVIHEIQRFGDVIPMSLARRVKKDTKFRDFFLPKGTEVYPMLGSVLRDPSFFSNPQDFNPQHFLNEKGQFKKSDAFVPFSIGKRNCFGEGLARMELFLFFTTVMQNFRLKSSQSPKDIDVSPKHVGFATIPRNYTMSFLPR", "assay": "in vitro CYP450 inhibition", "type": "in vitro ADME"}, "2C9": {"target": "2C9 (Homo sapiens, UniProt P11712)", "sequence (P11712 whole entry)": "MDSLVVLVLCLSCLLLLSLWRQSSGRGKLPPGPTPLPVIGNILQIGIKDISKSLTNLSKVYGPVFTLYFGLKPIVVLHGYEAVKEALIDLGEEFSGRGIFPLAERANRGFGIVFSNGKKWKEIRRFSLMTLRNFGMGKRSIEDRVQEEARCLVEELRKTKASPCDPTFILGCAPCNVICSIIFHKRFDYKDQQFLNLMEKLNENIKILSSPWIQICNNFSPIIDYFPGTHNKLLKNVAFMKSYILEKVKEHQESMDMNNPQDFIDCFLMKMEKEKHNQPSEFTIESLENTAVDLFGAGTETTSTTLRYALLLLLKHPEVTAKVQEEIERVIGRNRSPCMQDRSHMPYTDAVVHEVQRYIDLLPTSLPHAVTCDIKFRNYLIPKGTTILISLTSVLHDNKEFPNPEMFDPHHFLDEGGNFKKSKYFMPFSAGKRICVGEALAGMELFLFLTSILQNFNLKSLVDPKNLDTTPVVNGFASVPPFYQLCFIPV", "assay": "in vitro CYP450 inhibition", "type": "in vitro ADME"}, "2C19": {"target": "2C19 (Homo sapiens, UniProt P33261)", "sequence (P33261 whole entry)": "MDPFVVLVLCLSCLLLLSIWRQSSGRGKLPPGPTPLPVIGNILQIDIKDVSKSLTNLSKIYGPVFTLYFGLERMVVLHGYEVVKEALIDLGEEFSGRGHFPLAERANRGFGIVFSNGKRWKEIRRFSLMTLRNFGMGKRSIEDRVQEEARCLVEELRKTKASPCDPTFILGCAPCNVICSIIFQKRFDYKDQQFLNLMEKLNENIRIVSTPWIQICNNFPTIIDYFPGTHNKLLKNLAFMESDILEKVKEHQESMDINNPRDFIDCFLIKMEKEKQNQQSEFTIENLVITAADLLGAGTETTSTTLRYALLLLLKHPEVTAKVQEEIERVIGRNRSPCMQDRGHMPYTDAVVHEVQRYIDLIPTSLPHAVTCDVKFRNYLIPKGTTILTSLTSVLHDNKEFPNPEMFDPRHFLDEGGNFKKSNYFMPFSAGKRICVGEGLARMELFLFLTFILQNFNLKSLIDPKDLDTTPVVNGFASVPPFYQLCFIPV", "assay": "in vitro CYP450 inhibition", "type": "in vitro ADME"}, "2D6": {"target": "2D6 (Homo sapiens, UniProt P10635)", "assay": "in vitro CYP450 inhibition", "type": "in vitro ADME"}, "CYP2B6": {"test_system": "CYP2B6", "assay": "CYP induction in primary cultures of cryopreserved hepatocytes", "type": "in vitro ADME"}, "CYP1A2": {"test_system": "CYP1A2", "assay": "CYP induction in primary cultures of cryopreserved hepatocytes", "type": "in vitro ADME"}, "OAT1": {"target": "OAT1 (Homo sapiens, UniProt Q4U2R8)", "sequence (Q4U2R8 whole entry)": "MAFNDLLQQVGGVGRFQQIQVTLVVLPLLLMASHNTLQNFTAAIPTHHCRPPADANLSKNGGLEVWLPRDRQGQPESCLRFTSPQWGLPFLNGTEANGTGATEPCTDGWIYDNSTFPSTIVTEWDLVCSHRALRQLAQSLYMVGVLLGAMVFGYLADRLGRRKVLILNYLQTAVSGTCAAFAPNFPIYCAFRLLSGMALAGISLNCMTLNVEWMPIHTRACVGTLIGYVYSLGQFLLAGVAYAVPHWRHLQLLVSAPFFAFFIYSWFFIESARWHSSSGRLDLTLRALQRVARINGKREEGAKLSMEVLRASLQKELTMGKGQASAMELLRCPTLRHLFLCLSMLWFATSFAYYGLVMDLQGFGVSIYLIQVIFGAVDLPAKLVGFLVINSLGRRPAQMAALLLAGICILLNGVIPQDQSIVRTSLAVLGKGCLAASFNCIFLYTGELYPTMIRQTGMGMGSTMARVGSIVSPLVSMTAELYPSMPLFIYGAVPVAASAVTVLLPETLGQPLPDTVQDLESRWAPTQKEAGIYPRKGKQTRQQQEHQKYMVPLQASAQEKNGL", "assay": "transporter inhibition in vitro", "type": "in vitro ADME"}, "[8]": {"assay": "single agent therapy in subjects, toxicities", "type": "in vivo"}, "[9]": {"assay": "Example 1: adverse event profile of full and reduced regimens with docetaxel", "type": "in vivo", "description": "Protocol: Three subjects was administered Regimen 1 (Full): 35 mg/m^2 of docetaxel on days 1, 8, and 15 of every 28-day cycle and 80 mg of 2-[3-[(3R)-3-[[2-chloro-3-(trifluoromethyl)phenyl]methyl-(2,2-diphenylethyl)amino]butoxy]phenyl]acetic acid twice per day daily throughout treatment. Seven subjects was administered Regimen 2 (Reduced): 28 mg/m^2 of docetaxel on days 1, 8, and 15 of every 28-day cycle and 80 mg of 2-[3-[(3R)-3-[[2-chloro-3-(trifluoromethyl)phenyl]methyl-(2,2-diphenylethyl)amino]butoxy]phenyl]acetic acid twice per day for five continuous days followed by a 2 day rest period throughout treatment. One subject that was administered Regimen 2 received 35 mg/m^2 of docetaxel on days 1 and 80 mg of 2-[3-[(3R)-3-[[2-chloro-3-(trifluoromethyl)phenyl]methyl-(2,2-diphenylethyl)amino]butoxy]phenyl]acetic acid twice per day for the first seven days of treatment prior to switching to the reduced treatment schedule for the remainder of the 28-day cycle."}, "[10]": {"settings": "Regimen 1 (Full): 80 mg twice per day daily + docetaxel 35 mg/m^2, 3 cycles"}, "[11]": {"settings": "Regimen 2 (Reduced): 80 mg twice per day 5 days then 2 day rest + docetaxel 28 mg/m^2, 20 cycles"}}}
{"smiles": "C[C@H](CCOc1cccc(CC(=O)O)c1)N(Cc1cccc(C(F)(F)F)c1Cl)CC(c1ccccc1)c1ccccc1", "note": "[2-[3-[(3R)-3-[[2-chloro-3-(trifluoromethyl)phenyl]methyl-(2,2-diphenylethyl)amino]butoxy]phenyl]acetic acid]", "values": [{"measurement": "specificity for LXRβ than LXRα", "setting": "LXRβ; from EC50 values", "result": "approximately 2.9 fold"}, {"measurement": "EC50", "setting": "LXRβ; read-out: median effective concentration (EC50) for LXRβ", "result": 118, "unit": "nM"}, {"measurement": "growth of the xenograft", "setting": "melanoma xenograft", "result": "significantly inhibited growth of the xenograft"}, {"measurement": "tumor growth", "setting": "mouse melanoma; 50 mg/kg in combination with anti-PD1 therapy, tumors otherwise resistant to PD-1 inhibition", "result": "significant suppression of tumor growth"}, {"measurement": "inhibition of tumor growth", "setting": "mouse melanoma; combination with anti-CTLA-4 antibody relative to either therapy alone", "result": "superior"}, {"measurement": "tumor growth inhibition", "setting": "mouse melanoma; in combination with an anti-PD-1 antibody, model otherwise not responsive to anti-PD-1 antibody", "result": "> 80", "unit": "%"}, {"measurement": "anti-tumor efficacy", "setting": "mouse melanoma; in combination with dacarbazine, compared to either treatment alone", "result": "> 80", "unit": "%"}, {"measurement": "anti-tumor activity", "setting": "[1]; animal models of glioblastoma, triple negative breast cancer (TNBC) and lung cancer", "result": "demonstrated"}, {"measurement": "inhibition of primary tumor growth", "setting": "[1]; extent varied with model", "result": "48-95%"}, {"measurement": "inhibition of endothelial recruitment", "setting": "endothelial cells", "result": "~50", "unit": "%"}, {"measurement": "ApoE gene expression induction", "setting": "ApoE [2]", "result": 3, "unit": "fold"}, {"measurement": "ApoE gene expression induction", "setting": "ApoE [3]", "result": "up to 40 fold"}, {"measurement": "hERG channel conductance", "setting": "[4]", "result": "significant increase, but not inhibition"}, {"measurement": "compound-related effects on qualitative ECG parameters (PR or QTc intervals or QRS duration)", "setting": "[5]", "result": "no"}, {"measurement": "mean heart rate", "setting": "[5]; Day 1 post-dose interval, significant in females at 150 (stepped down to 100) mg/kg/day, not considered adverse", "result": "dose related decrease in mean heart rate"}, {"measurement": "neurobehavioral FOB or respiratory evaluations", "setting": "[6]", "result": "no adverse effects were noted"}, {"measurement": "half-life", "setting": "[7]; Sprague-Dawley, rat, plasma, po, female rats, read-out: mean apparent oral t½ (converted)", "result": 6.5, "unit": "h"}, {"measurement": "clearance, female versus male rats", "setting": "[7]; all dose levels, higher systemic exposure in females", "result": "cleared at a lower rate in female rats compared to males"}, {"measurement": "Tmax", "setting": "[7]; both sexes, rat, plasma, po, Sprague-Dawley rats, males and females", "result": "4 to 8", "unit": "h"}, {"measurement": "bioavailability", "setting": "[7]; rat, plasma, Sprague-Dawley rats, 30 mg/kg oral dose, read-out: combined, mean % F", "result": "~31", "unit": "%"}, {"measurement": "metabolism by CYP3A4", "setting": "CYP3A4", "result": "metabolized predominantly"}, {"measurement": "substrate for CYP2J2", "setting": "CYP2J2", "result": "possibly"}, {"measurement": "inhibition of 2A6", "setting": "2A6", "result": "very weakly inhibited"}, {"measurement": "inhibition of 2C9", "setting": "2C9", "result": "very weakly inhibited"}, {"measurement": "inhibition of 2C19", "setting": "2C19", "result": "very weakly inhibited"}, {"measurement": "inhibition of 2D6", "setting": "2D6", "result": "very weakly inhibited"}, {"measurement": "CYP2B6 induction", "setting": "CYP2B6; 1 concentration in ⅓ donors", "result": "> 2", "unit": "fold"}, {"measurement": "potential to induce CYP2B6", "setting": "CYP2B6; cryopreserved hepatocytes", "result": "cannot be ruled out"}, {"measurement": "induction of CYP1A2", "setting": "CYP1A2", "result": "did not induce"}, {"measurement": "inhibition at 50 µM", "setting": "OAT1", "result": "< 50", "unit": "%"}, {"measurement": "dose-limiting toxicity (DLT)", "setting": "[8]; single agent therapy", "result": "DLT of Grade 4 neutropenia"}, {"measurement": "hyperlipidemia in treated subjects", "setting": "[8]; subjects treated", "result": "hyperlipidemia has been observed"}, {"measurement": "Decreased white blood cell count (All grades), AE/Cycle %", "setting": "[9]; [10]", "result": 67, "unit": "%"}, {"measurement": "Neutropenia (All grades), AE/Cycle %", "setting": "[9]; [10]", "result": 67, "unit": "%"}, {"measurement": "Decreased white blood cell count (All grades), number of AEs", "setting": "[9]; Regimen 1 (Full): 80 mg twice per day daily + docetaxel 35 mg/m^2, 3 subjects, 3 cycles", "result": 2}, {"measurement": "Neutropenia (All grades), number of AEs", "setting": "[9]; Regimen 1 (Full): 80 mg twice per day daily + docetaxel 35 mg/m^2 days 1, 8, 15 of 28-day cycle, 3 subjects, 3 cycles", "result": 2}, {"measurement": "Decreased white blood cell count (All grades), number of AEs", "setting": "[9]; Regimen 2 (Reduced): 80 mg twice per day 5 days then 2 day rest + docetaxel 28 mg/m^2, 7 subjects, 20 cycles", "result": 4}, {"measurement": "Decreased white blood cell count (All grades), AE/Cycle %", "setting": "[9]; [11]", "result": 20, "unit": "%"}, {"measurement": "Neutropenia (All grades), AE/Cycle %", "setting": "[9]; [11]", "result": 5, "unit": "%"}, {"measurement": "Neutropenia (All grades), number of AEs", "setting": "[9]; Regimen 2 (Reduced): 80 mg twice per day 5 days then 2 day rest + docetaxel 28 mg/m^2 days 1, 8, 15, 7 subjects, 20 cycles", "result": 1}, {"measurement": "adverse event in one Regimen 2 subject", "setting": "[9]; one subject: docetaxel 35 mg/m^2 day 1 and 80 mg twice per day first seven days, then reduced schedule", "result": "grade 1 white blood cell decrease"}]}
